In general, pIC50 refers to the IC50 on a negative log10 scale, so that one unit is a factor of ten. A lower pIC50 goes with a high IC50.

pIC50: −log10 of the molar value.

Data on 22 molecules can be found in patent US12391679B2, “Benzamide-substituted bicyclic imidazo- and pyrazolo-fused -pyridine, -pyrimide, and -pyridazine compounds for treatment of inflammatory diseases” (ONCO3R Therapeutics BV, priority 2019, dated 2025).

Holding throughout (format): biochemical
For one experiment, the target named is T1, SIK2 (Homo sapiens, UniProt Q9H0K1).
T1 construct: purchased ThermoFisher Scientific PV4792
T1 sequence (Q9H0K1 whole entry): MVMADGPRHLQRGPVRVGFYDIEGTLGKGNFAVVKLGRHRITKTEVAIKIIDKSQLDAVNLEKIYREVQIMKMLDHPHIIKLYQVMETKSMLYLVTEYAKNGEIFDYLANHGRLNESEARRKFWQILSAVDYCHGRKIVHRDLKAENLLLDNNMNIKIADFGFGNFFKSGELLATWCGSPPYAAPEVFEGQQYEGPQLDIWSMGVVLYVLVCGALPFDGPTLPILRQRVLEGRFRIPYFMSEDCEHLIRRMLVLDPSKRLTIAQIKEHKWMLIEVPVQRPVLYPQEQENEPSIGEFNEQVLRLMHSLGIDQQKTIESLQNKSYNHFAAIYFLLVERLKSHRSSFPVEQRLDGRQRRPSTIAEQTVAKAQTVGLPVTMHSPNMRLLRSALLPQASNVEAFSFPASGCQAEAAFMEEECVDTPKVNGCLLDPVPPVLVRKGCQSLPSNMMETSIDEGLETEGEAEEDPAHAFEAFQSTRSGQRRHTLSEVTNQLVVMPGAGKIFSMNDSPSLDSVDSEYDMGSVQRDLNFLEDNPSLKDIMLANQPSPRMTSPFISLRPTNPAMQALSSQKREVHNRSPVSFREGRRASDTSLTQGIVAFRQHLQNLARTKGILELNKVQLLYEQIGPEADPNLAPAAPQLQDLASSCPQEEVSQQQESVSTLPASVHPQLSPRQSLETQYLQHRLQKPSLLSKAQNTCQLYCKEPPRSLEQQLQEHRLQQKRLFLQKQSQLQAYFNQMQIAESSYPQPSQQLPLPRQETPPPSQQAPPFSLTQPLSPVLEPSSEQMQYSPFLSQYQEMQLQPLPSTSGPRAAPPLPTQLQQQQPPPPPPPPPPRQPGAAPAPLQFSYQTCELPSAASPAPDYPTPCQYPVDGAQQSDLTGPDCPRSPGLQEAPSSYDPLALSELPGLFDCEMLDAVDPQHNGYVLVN
Description: ADP-Glo kinase assay, SIK2. The protocol: (§1) The ADP-Glo™ kinase assay is a luminescent technology assay which measures the ADP formed from a kinase reaction. […] In a second step the kinase reactions are terminated and all the remaining ATP is depleted. In a final step the ADP is converted into ATP and this newly synthesized ATP is measured by using a luciferase/luciferin reaction. The generated light is measured using an Envision plate reader, wherein the luminescent signal obtained positively correlates with the kinase activity.
(§2) 1% DMSO and 10 μM staurosporine final concentrations are used as negative and positive controls.
(§3) 2 μL enzyme-substrate mixture is added to the assay plates.
(§4) The reaction is started by adding 2 μL diluted ATP on the assay plates. Plates are centrifuged for a few seconds at 1000 rpm and gently shaken for […] followed by an incubation at RT for 120 min.
(§5) The reactions are stopped and the unconsumed ATP is depleted by adding 5 μL ADP-Glo Reagent (Promega, Cat #V9120) to the reaction. The plates are centrifuged for a few seconds at 1000 rpm and incubated at RT for 40 min (ATP depletion).
(§6) The ADP is converted to ATP and luciferase and luciferin is introduced to detect ATP by adding 10 μL Kinase Detection Reagent (Promega, Cat #V913B+V914r) to the reaction. The plates are centrifuged for a few seconds at 1000 rpm and incubated at RT for 30 min (ADP detection).
(§7) Luminescence is measured on an Envision plate reader (PerkinElmer Inc.).
For orientation: ADP-Glo first removes unused ATP, then detects ADP through luciferase.

The next experiment concerns the target T2, SIK3 (Homo sapiens, UniProt Q9Y2K2).
T2 construct: purchased SignalChem S12-11G-100
Description: ADP-Glo kinase assay, SIK3. The method, then:
as §1, §2, §3, §4, §5, §6, §7

The target in another experiment is T3, SIK1 (Homo sapiens, UniProt P57059).
T3 construct: purchased Carna Biosciences 02-131
T3 sequence (P57059 whole entry): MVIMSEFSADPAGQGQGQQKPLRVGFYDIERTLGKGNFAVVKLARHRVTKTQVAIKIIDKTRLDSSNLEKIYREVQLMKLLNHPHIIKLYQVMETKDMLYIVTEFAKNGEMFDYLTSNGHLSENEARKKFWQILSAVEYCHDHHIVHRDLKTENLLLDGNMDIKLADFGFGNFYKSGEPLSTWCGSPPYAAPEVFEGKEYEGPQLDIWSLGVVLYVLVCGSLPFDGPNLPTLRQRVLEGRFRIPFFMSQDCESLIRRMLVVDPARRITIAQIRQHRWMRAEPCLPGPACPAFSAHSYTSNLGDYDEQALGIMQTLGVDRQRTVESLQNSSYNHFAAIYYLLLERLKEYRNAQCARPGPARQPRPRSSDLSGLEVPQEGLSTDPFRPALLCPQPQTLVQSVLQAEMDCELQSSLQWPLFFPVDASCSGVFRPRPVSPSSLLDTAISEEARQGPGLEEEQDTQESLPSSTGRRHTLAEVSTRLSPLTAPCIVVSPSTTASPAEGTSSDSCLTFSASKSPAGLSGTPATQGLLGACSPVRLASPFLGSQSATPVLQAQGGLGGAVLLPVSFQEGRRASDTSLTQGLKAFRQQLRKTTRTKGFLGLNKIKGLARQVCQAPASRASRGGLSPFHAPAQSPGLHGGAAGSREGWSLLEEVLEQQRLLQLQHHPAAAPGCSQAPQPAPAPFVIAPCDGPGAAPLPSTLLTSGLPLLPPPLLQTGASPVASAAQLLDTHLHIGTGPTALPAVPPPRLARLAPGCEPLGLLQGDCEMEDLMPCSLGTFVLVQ
Description: ADP-Glo kinase assay, SIK1. The method, then:
as §1, §2, §3, §4, §5, §6, §7

T2 sequence (Q9Y2K2 59-365 limits assumed): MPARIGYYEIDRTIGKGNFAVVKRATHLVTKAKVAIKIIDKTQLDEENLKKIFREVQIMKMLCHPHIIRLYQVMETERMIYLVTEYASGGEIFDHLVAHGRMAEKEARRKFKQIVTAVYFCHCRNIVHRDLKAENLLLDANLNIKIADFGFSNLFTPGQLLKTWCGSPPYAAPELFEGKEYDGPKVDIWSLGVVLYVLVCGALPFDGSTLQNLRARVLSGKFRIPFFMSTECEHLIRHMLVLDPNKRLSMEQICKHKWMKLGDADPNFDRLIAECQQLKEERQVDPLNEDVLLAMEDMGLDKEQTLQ

Turning to `COc1cc(-c2cnc3cc(C(C)(C)C#N)ccn23)cc(OC(F)F)c1C(=O)N1CC(O)(C2CC2)C1` [Cpd 74, 2-[3-[4-(3-cyclopropyl-3-hydroxy-azetidine-1-carbonyl)-3-(difluoromethoxy)-5-methoxy-phenyl]imidazo[1,2-a]pyridin-7-yl]-2-methyl-propanenitrile], the pIC50 on SIK2 is less than 6.30; on SIK3, 7.00 to 8.00; against SIK1 it was less than 6.30.
For `COc1cc(-c2cnc3cc(C(C)(C)C#N)ccn23)cc(OC(F)F)c1C(=O)NC1CCOC1` (stereo not drawn) [Cpd 86, 4-[7-(1-cyano-1-methyl-ethyl)imidazo[1,2-a]pyridin-3-yl]-2-(difluoromethoxy)-6-methoxy-N-tetrahydrofuran-3-yl-benzamide], the pIC50 against SIK2 is less than 6.30; against SIK3 it was 7.00 to 8.00; against SIK1, less than 6.30.
Turning to `COc1cc(-c2cnc3cc(C(C)(C)C#N)ccn23)cc(OC(F)F)c1C(=O)N1CC(O)C1` [Cpd 50, 2-[3-[3-(difluoromethoxy)-4-(3-hydroxyazetidine-1-carbonyl)-5-methoxy-phenyl]imidazo[1,2-a]pyridin-7-yl]-2-methyl-propanenitrile], the pIC50 was less than 6.30 against SIK2, 6.30 to 7.00 on SIK3 and less than 6.30 against SIK1.
Take `COc1cc(-c2cnc3cc(C(C)(C)C#N)ccn23)cc(OC(F)F)c1C(=O)NC1CC(F)(F)C1` [Cpd 88, 4-[7-(1-cyano-1-methyl-ethyl)imidazo[1,2-a]pyridin-3-yl]-N-(3,3-difluorocyclobutyl)-2-(difluoromethoxy)-6-methoxy-benzamide]: the pIC50 on SIK2 is less than 6.30; against SIK3, 7.00 to 8.00; against SIK1, less than 6.30.
For `COc1cc(-c2cnc3cc(C4(CNC(C)C)CC4)ccn23)cc(OC(F)F)c1C(=O)NC1CC1` [Cpd 151, N-cyclopropyl-2-(difluoromethoxy)-4-[7-[1-[(isopropylamino)methyl]cyclopropyl]imidazo[1,2-a]pyridin-3-yl]-6-methoxy-benzamide], the pIC50 was less than 6.30 at SIK2, 6.30 to 7.00 against SIK3 and less than 6.30 against SIK1.
Turning to `COc1cc(-c2cnc3cc(C(C)(C)C#N)ccn23)cc(OC(F)F)c1C(=O)NC(CO)C1CC1` (stereo not drawn) [Cpd 87, 4-[7-(1-cyano-1-methyl-ethyl)imidazo[1,2-a]pyridin-3-yl]-N-(1-cyclopropyl-2-hydroxy-ethyl)-2-(difluoromethoxy)-6-methoxy-benzamide], the pIC50 at SIK2, at SIK3 and against SIK1 was less than 6.30 throughout.
Consider `COc1cc(-c2cnc3cc(C(C)(C)C#N)ccn23)cc(OC(F)F)c1C(=O)NCC(C)C` [Cpd 72, 4-[7-(1-cyano-1-methyl-ethyl)imidazo[1,2-a]pyridin-3-yl]-2-(difluoromethoxy)-N-isobutyl-6-methoxy-benzamide], for which the values for the negative logarithm of the IC50 (pIC50) on SIK2, at SIK3 and at SIK1 were less than 6.30, 7.00 to 8.00 and less than 6.30, respectively.
On to `COc1cc(-c2cnc3cc(C(C)(O)C4CCOCC4)ccn23)cc(OC(F)F)c1C(=O)NC1CC1` (stereo not drawn) [Cpd 134, N-cyclopropyl-2-(difluoromethoxy)-4-[7-(1-hydroxy-1-tetrahydropyran-4-yl-ethyl)imidazo[1,2-a]pyridin-3-yl]-6-methoxy-benzamide], for which the values for the pIC50 on SIK2, at SIK3 and at SIK1 were less than 6.30, 7.00 to 8.00 and less than 6.30, respectively.
For `COc1cc(-c2cnc3cc(C(C)(C)C#N)ccn23)cc(OC(F)F)c1C(=O)N1CCC(O)CC1` [Cpd 41, 2-[3-[3-(difluoromethoxy)-4-(4-hydroxypiperidine-1-carbonyl)-5-methoxy-phenyl]imidazo[1,2-a]pyridin-7-yl]-2-methyl-propanenitrile], the pIC50 at SIK2, on SIK3 and on SIK1 was less than 6.30 each time.
Take `COc1cc(-c2cnc3cc(C(C)(O)Cn4cncn4)ccn23)cc(OC(F)F)c1C(=O)NC1CC1` (stereo not drawn) [Cpd 194, N-cyclopropyl-2-(difluoromethoxy)-4-[7-[1-hydroxy-1-methyl-2-(1,2,4-triazol-1-yl)ethyl]imidazo[1,2-a]pyridin-3-yl]-6-methoxy-benzamide]: the negative-log IC50 (pIC50) at SIK2 is less than 6.30; on SIK3, 6.30 to 7.00; against SIK1, less than 6.30.
As for `COc1cc(-c2cnc3cc(C(C)N4CC(O)C4)ccn23)cc(OC(F)F)c1C(=O)NC1CC1` (stereo not drawn) [Cpd 155, N-cyclopropyl-2-(difluoromethoxy)-4-[7-[1-(3-hydroxyazetidin-1-yl)ethyl]imidazo[1,2-a]pyridin-3-yl]-6-methoxy-benzamide], the values for the pIC50 against SIK2, against SIK3 and at SIK1 were less than 6.30, 7.00 to 8.00 and less than 6.30, respectively.
On to `COc1cc(-c2cnc3cc(C(C)(C)C#N)ccn23)cc(OC(F)F)c1C(=O)NC(C)C(F)F` (stereo not drawn) [Cpd 71, 4-[7-(1-cyano-1-methyl-ethyl)imidazo[1,2-a]pyridin-3-yl]-2-(difluoromethoxy)-N-(2,2-difluoro-1-methyl-ethyl)-6-methoxy-benzamide], for which the negative logarithm of the IC50 (pIC50) against SIK2 was less than 6.30; against SIK3, 7.00 to 8.00; at SIK1 it was less than 6.30.
Consider `COc1cn2c(-c3cc(OC)c(C(=O)NC4CC4)c(OC(F)F)c3)cnc2cc1C1COC1` [Cpd 215, N-cyclopropyl-2-(difluoromethoxy)-6-methoxy-4-[6-methoxy-7-(oxetan-3-yl)imidazo[1,2-a]pyridin-3-yl]benzamide], for which the values for the pIC50 on SIK2, against SIK3 and on SIK1 were 6.30 to 7.00, 7.00 to 8.00 and 6.30 to 7.00, respectively.
For `COc1cc(-c2cnc3cc(C(C)(C)C#N)ccn23)cc(OC(F)F)c1C(=O)N1CCN(C)CC1` [Cpd 49, 2-[3-[3-(difluoromethoxy)-5-methoxy-4-(4-methylpiperazine-1-carbonyl)phenyl]imidazo[1,2-a]pyridin-7-yl]-2-methyl-propanenitrile], the pIC50 against SIK2, on SIK3 and at SIK1 was less than 6.30 each time.
On to `COc1cc(-c2cnc3cc(C(C)NC(C)C)ccn23)cc(OC(F)F)c1C(=O)NC1CC1` (stereo not drawn) [Cpd 149, N-cyclopropyl-2-(difluoromethoxy)-4-[7-[1-(isopropylamino)ethyl]imidazo[1,2-a]pyridin-3-yl]-6-methoxy-benzamide], for which the pIC50 against SIK2 is less than 6.30; against SIK3 it was 7.00 to 8.00; on SIK1, less than 6.30.
Regarding `COc1cc(-c2cnc3cc(C(C)(C)O)ccn23)cc(OC)c1C(=O)NCC(F)(F)F` [Cpd 57, 4-[7-(1-hydroxy-1-methyl-ethyl)imidazo[1,2-a]pyridin-3-yl]-2,6-dimethoxy-N-(2,2,2-trifluoroethyl)benzamide], the pIC50 is less than 6.30 at SIK2, 7.00 to 8.00 against SIK3 and less than 6.30 at SIK1.
`COc1cc(-c2cnc3cc(C4CCN(C(=O)OC(C)(C)C)CC4)ccn23)cc(OC(F)F)c1C(=O)NC1CC1` [Cpd 60, tert-butyl 4-[3-[4-(cyclopropylcarbamoyl)-3-(difluoromethoxy)-5-methoxy-phenyl]imidazo[1,2-a]pyridin-7-yl]piperidine-1-carboxylate]: the pIC50 on SIK2 was 7.00 to 8.00; at SIK3 it was 8.00 to 11.00; at SIK1, 6.30 to 7.00.
For `COc1cc(-c2cnc3cc(C(C)(C)C#N)ccn23)cc(OC(F)F)c1C(=O)NCC1COC1` [Cpd 102, 4-[7-(1-cyano-1-methyl-ethyl)imidazo[1,2-a]pyridin-3-yl]-2-(difluoromethoxy)-6-methoxy-N-(oxetan-3-ylmethyl)benzamide] the same measures were less than 6.30, 7.00 to 8.00 and less than 6.30.
For `COc1cc(-c2cnc3cc(C4CN(C(=O)OC(C)(C)C)C4)ccn23)cc(OC(F)F)c1C(=O)NC1CC1` [Cpd 59, tert-butyl 3-[3-[4-(cyclopropylcarbamoyl)-3-(difluoromethoxy)-5-methoxy-phenyl]imidazo[1,2-a]pyridin-7-yl]azetidine-1-carboxylate] the same measures were 7.00 to 8.00, 8.00 to 11.00 and 7.00 to 8.00.
Consider `CCN(C)C(=O)c1c(OC)cc(-c2cnc3cc(C(C)(C)C#N)ccn23)cc1OC(F)F` [Cpd 40, 4-[7-(1-cyano-1-methyl-ethyl)imidazo[1,2-a]pyridin-3-yl]-2-(difluoromethoxy)-N-ethyl-6-methoxy-N-methyl-benzamide], for which the pIC50 at SIK2, on SIK3 and against SIK1 was less than 6.30 throughout.
As for `COc1cc(-c2cnc3cc(C4(C(=O)N5CC(O)C5)CC4)ccn23)cc(OC(F)F)c1C(=O)NC1CC1` [Cpd 144, N-cyclopropyl-2-(difluoromethoxy)-4-[7-[1-(3-hydroxyazetidine-1-carbonyl)cyclopropyl]imidazo[1,2-a]pyridin-3-yl]-6-methoxy-benzamide], the pIC50 against SIK2 was less than 6.30; on SIK3 it was 7.00 to 8.00; on SIK1, less than 6.30.
Regarding `CCN(CC)C(=O)C1(c2ccn3c(-c4cc(OC)c(C(=O)NC5CC5)c(OC(F)F)c4)cnc3c2)CC1` [Cpd 143, N-cyclopropyl-4-[7-[1-(diethylcarbamoyl)cyclopropyl]imidazo[1,2-a]pyridin-3-yl]-2-(difluoromethoxy)-6-methoxy-benzamide], the pIC50 at SIK2 is less than 6.30; at SIK3, 6.30 to 7.00; at SIK1, less than 6.30.
